This is an account of results in patent US20190133122A1, “FUNGICIDAL OR BACTERICIDAL COMPOSITION AND METHOD FOR CONTROLLING DISEASE” (Nissan Chemical Corporation, priority 2016, published 2019).

Counter-ions that a name gives are not always drawn.

The first experiment deals with cucumber gray mold fungus (Botrytis cinerea). The experiment can be described thus: Preventive test against gray mold (sprayed cucumber cotyledon, cut leaf inoculated). Type of experiment: in vivo. The conditions noted are these: 1 ppm, active ingredient B alone; cucumber leaf, 20° C., 3 days after inoculation. Here is the method: Such an agent was diluted with water to a predetermined concentration to obtain a test solution. Then, cucumber (variety: Sagami-hanjiro) was planted in a plastic pot of 90 cm^3, and in the cotyledon stage, 5 ml of the obtained test solution, was sprayed by a spray gun and air-dried. Thereafter, the treated leaf was cut off and placed in a plastic container which filled approximately 0.5 cm in depth water. A suspension of conidia of cucumber gray mold fungus (Botrytis cinerea) and a dissolved PDA culture medium were mixed at a ratio of 1:1 (mass ratio), and the mixture was dropped to inoculate the treated leaf with 30 μl. After the inoculation, the plastic container was sealed and left at 20° C. for 3 days, the ratio of the formed lesion occupying the inoculated leaf was measured, and the preventive value (observed value) was calculated in accordance with the following calculation formula.
Preventive value=[1−(treated plot lesion area ratio/untreated plot lesion area ratio)]×100
Further, from the preventive value at each agent concentration, a theoretical value expected by treatment of the mixing (theoretical value) was calculated by using the Colby method (Colby S. R. 1967, Weeds 15, 20-22), in order to analyze synergy. The calculation method is as follows.
X: preventive value of A agent (test solution obtained from active ingredient A) at x concentration
Y: preventive value of B agent (test solution obtained from active ingredient B) at y concentration
E: theoretical value expected by treatment of the mixture of A agent and B agent.
In the observed value and the theoretical value, calculated as the above, the obtained result is analyzed to be synergy if the observed value is larger than the theoretical value, to be antagonism if the theoretical value is larger than the observed value, and to be an additive effect if the observed value and the theoretical value are the same.
Turning to `CON(C(=O)c1cn(C)nc1C(F)F)C(C)Cc1c(Cl)cc(Cl)cc1Cl` (stereo not shown) [Compound No. C49, pydiflumetofen], the Preventive value amounted to 45.
For `O=C(Nc1ccccc1-c1ccc(F)c(F)c1)c1nccnc1C(F)(F)F` [Compound No. C50, pyraziflumid], the Preventive value turned out to be 70.

The same experiment, now with this note: 5 ppm, active ingredient B alone; cucumber leaf, 20° C., 3 days after inoculation.
In the case of `C=CCSC(=O)n1c(N)c(-c2ccccc2C)c(=O)n1C(C)C` [Compound No. H50, fenpyrazamine], the Preventive value came to 56.

The same experiment, now with this note: 10 ppm, active ingredient B alone; cucumber leaf, 20° C., 3 days after inoculation.
In the case of `CNC(=O)/C(=N/OC)c1ccccc1CO/N=C(C)/C=C/c1c(Cl)cccc1Cl` [C25, fenaminstrobin], the Preventive value amounted to 55.
`CC(O)(Cn1cncn1)c1ccc(Oc2ccc(Cl)cc2)cc1C(F)(F)F` (stereo not shown) [H51, mefentrifluconazole]: the Preventive value was found to be 53.
Take `CC1(C)N=C(c2cnc3ccccc3c2)c2ccccc2C1(F)F` [M20, quinofumelin]: the Preventive value is reported as 60.

The same experiment, now with this note: 100 ppm, active ingredient B alone; cucumber leaf, 20° C., 3 days after inoculation.
As to `COCC(=O)N(c1c(C)cccc1C)[C@H](C)C(=O)OC` [A05, metalaxyl-M], the Preventive value came to 5.
Turning to `CO/C=C(/C(=O)OC)c1ccccc1CO/N=C(C)/C=C/c1ccc(Cl)cc1` [C22, enoxastrobin], the Preventive value is 85.
`COC(=O)N(OC)c1ccccc1COc1nc(Cl)c(Cl)cc1Cl` [C38, triclopyricarb]: the Preventive value is 69.
For the compound `C[C@H]1O[C@H](O[C@H]2[C@H](O)[C@@H](O)[C@@H](O)[C@H](O)[C@@H]2O)[C@@H](N)C[C@@H]1NC(=N)C(=O)O` [D05, kasugamycin], the Preventive value amounted to 28.
As to `CN1OC(c2ccc(Cl)cc2)CC1(C)c1cccnc1` (stereo not shown) [H33, pyrisoxazole], the Preventive value is recorded as 9.
The same measure, in the same setting: then `C#CCOc1ccc(CCNC(=O)C(OCC#C)c2ccc(Cl)cc2)cc1OC` (stereo not shown) [I08, mandipropamid], with 10; and `[Cl-].[Cu+2].[Cu+2].[OH-].[OH-].[OH-]` [L08, copper oxychloride], with 5; and `Cn1c(=O)c2sc3c(=O)n(C)c(=O)c3sc2c1=O` [M23, dipymetitrone], with 54.
With `CCSS(=O)(=O)CC` [M34, ethylicin], the Preventive value is 10.
Take Bacillus subtilis D747 strain [G13]: the Preventive value amounted to 28.
Turning to basic copper sulfate [L10], the Preventive value is 18.
Take fosetyl-aluminium [M08]: the Preventive value worked out at 10.

The same experiment, now with this note: Botrytis cinerea, 72 h, read-out: Preventive value.
For the compound `COCC(=O)N(c1c(C)cccc1C)N1CCOC1=O` [A07, oxadixyl], the pest or weed control at 100 ppm is 10%.
The same measure, in the same setting: then `Cc1cccc(-n2nnn(C)c2=O)c1COc1ccn(-c2ccc(Cl)cc2)n1` [C51, 1-(2-[([1-(4-chlorophenyl)-1H-pyrazol-3-yl]oxy)-methyl]-3-methylphenyl)-4-methyl-1,4-dihydro-5H-tetrazol-5-one], with 48%.
`Clc1ccc(CSC(Cn2cncn2)=Nc2ccc(Cl)cc2Cl)cc1` [H21, imibenconazole]: the pest or weed control at 10 ppm stood at 20%.
`S=C(S)NCCNC(=S)S` [L35, zineb]: the pest or weed control at 100 ppm is 23%.
On to `Cc1nc2c(F)c(F)ccc2cc1Oc1cccc(F)c1C(C)(C)O` [M21, 2-(2-[(7,8-difluoro-2-methylquinolin-3-yl)oxy]-6-fluoro-phenyl)propan-2-ol], for which the pest or weed control at 1 ppm was found to be 65%.

Staying with this experiment, now noted: Botrytis cinerea, 72 h; 10 ppm, active ingredient B alone; cucumber leaf, 20° C., 3 days after inoculation; read-out: Preventive value.
For the compound `COC(=O)Nc1nc2ccccc2[nH]1` [B02, carbendazim], the pest or weed control at 10 ppm is 85%.
On the same count and under the same terms, then `Cc1nnc(Cl)c(-c2c(F)cccc2F)c1-c1ccccc1` [M44, 3-chloro-4-(2,6-difluorophenyl)-6-methyl-5-phenyl-pyridazine], with 28%.

The same experiment, now with this note: Botrytis cinerea, 72 h; 100 ppm, active ingredient B alone; cucumber leaf, 20° C., 3 days after inoculation; read-out: Preventive value.
`Cc1cc(O)no1` [A10, hymexazol]: the pest or weed control at 100 ppm is 10%.
Turning to `CCC(C)(NC(=O)c1cc(Cl)c(C)c(Cl)c1)C(=O)CCl` (stereo not shown) [B08, zoxamide], the pest or weed control at 100 ppm was found to be 15%.
With `Cc1ccc(-c2c(Cl)nc(C#N)n2S(=O)(=O)N(C)C)cc1` [C41, cyazofamid], the pest or weed control at 100 ppm came out at 10%.
As to `[H]/N=C(/N)N[C@H]1[C@H](O)[C@@H](O)[C@H](O[C@@H]2O[C@@H](C)[C@](O)(C=O)[C@H]2O[C@@H]2O[C@@H](CO)[C@H](O)[C@@H](O)[C@@H]2NC)[C@@H](N/C(N)=N\[H])[C@@H]1O` [D06, streptomycin], the pest or weed control at 100 ppm came to 13%.
For `CCCOC(=O)NCCCN(C)C` [G12, propamocarb hydrochloride], the pest or weed control at 100 ppm worked out at 15%.
Consider `CCCC1COC(Cn2cncn2)(c2ccc(Cl)cc2Cl)O1` (stereo not shown) [H30, propiconazole], for which the pest or weed control at 100 ppm amounted to 38%.
Regarding `CC(C)(C)C(=O)C(Oc1ccc(Cl)cc1)n1cncn1` (stereo not shown) [H37, triadimefon], the pest or weed control at 100 ppm was found to be 38%.
Regarding `CCCOC/C(=N\c1ccc(Cl)cc1C(F)(F)F)n1ccnc1` [H39, triflumizole], the pest or weed control at 100 ppm was determined as 10%.
On to `OCC1=C[C@H](N[C@H]2C[C@H](CO)[C@@H](O[C@@H]3O[C@H](CO)[C@@H](O)[C@H](O)[C@H]3O)[C@H](O)[C@H]2O)[C@H](O)[C@@H](O)[C@@H]1O` [I01, validamycin], for which the pest or weed control at 100 ppm was 10%.
Consider `COc1ccc(C(=CC(=O)N2CCOCC2)c2ccc(Cl)cc2)cc1OC` [I05, dimethomorph], for which the pest or weed control at 100 ppm came to 18%.
Same read-out and setting: then `CN(C)C(=S)SSC(=S)N(C)C` [L21, thiram], with 28%; and `CCNC(=O)NC(=O)/C(C#N)=N/OC` [M02, cymoxanil], with 13%.
